Measured values taken from PMC10958470 (Virus Research, 2024).
Where “and” joins values, the source holds several entries; their conditions need not be identical. Identical values can stand only once. Counter-ions that a name gives are not always drawn. Like-named read-outs stand apart in the source and are kept apart here.

Legend:
[1] = molecular target: SARS-CoV-2 helicase (nsp13) (Severe acute respiratory syndrome coronavirus 2, UniProt P0DTD1); experiment: biochemical; type: biochemical
[2] = molecular target: SARS-CoV-2 RdRp nsp12/7/8 complex (Severe acute respiratory syndrome coronavirus 2, UniProt P0DTD1); experiment: biochemical; type: biochemical; details: for inhibition at 20 µM: read-out: RdRp Inhibition [%] 20 µM (PS Inhibition RdRp [%])
SARS-CoV-2 helicase = SARS-CoV-2 helicase (Severe acute respiratory syndrome coronavirus 2, UniProt P0DTD1); type: binding
[3] = molecular target: SARS-CoV-2 nsp13 NTPase activity (Severe acute respiratory syndrome coronavirus 2, UniProt P0DTD1); experiment: biochemical; type: biochemical; details: for inhibition at 20 µM: read-out: ATPase inhibition [%] 20 µM (HC Helicase ATPase inhibition [%])
RdRp complex = RdRp complex (Severe acute respiratory syndrome coronavirus 2, UniProt P0DTD1); type: binding, SARS-CoV-2
[4] = read-out: DTT Helicase unwinding inhibition [%] 2.5 µM triplicates
[5] = read-out: Helicase Inhibition [%] 20 µM (PS Inhibition Helicase [%])
[6] = read-out: Helicase unwinding inhibition 2.5 µM triplicates

Compound	Helicase Inhibition [%] 20 µM (PS Inhibition Helicase [%]) [1]	RdRp Inhibition [%] 20 µM (PS Inhibition RdRp [%]) [2]	PicoGreen effect [%] 20 µM (annealed dsDNA substrate)	inhibition at 20 µM [1, 5]	IC50 ([2]; RdRp IC50 [µM])	inhibition at 20 µM [2]	also measured
N#C/C(=C\c1ccc(O)c(O)c1)C(=O)OCCc1cccs1 [2-TEDC]	8.66%	97.86%	7.15%	–	–	–	IC50 ([2]; read-out: RdRp IC50): 7.99 µM
O=C(O[C@@H]1Cc2c(O)cc(O)cc2O[C@@H]1c1cc(O)c(O)c(O)c1)c1cc(O)c(O)c(O)c1 [(−)-epigallocatechin gallate]	–	85.49%	–	96.4%	–	–	DTT nsp13 inhibition [%] 20 µM (DTT HC Helicase inhibition [%]) [1]: 78.10%; inhibition at 2.5 µM [1, 4]: 73.5%; Helicase Tm °C 20 µM (SARS-CoV-2 helicase): 38.4 °C; Helicase Tm °C 100 µM (SARS-CoV-2 helicase): 39.6 °C; effect on helicase Tm (SARS-CoV-2 helicase): did not result in a Tm change; DTT Helicase ATPase activity PLUS DNA substrate 2 µM [3]: 31.66; DTT Helicase ATPase activity [%] 2 µM [3]: 43.42%; gain of ATPase activity reduction in the presence of dsDNA substrate [3]: 10–15%
Nc1ncnc2c1ncn2[C@@H]1O[C@H](COP(=O)(O)OP(=O)(O)OP(=O)(O)O)[C@@H](O)[C@H]1O [ATP, adenosine triphosphate]	–	–	–	–	–	–	Kmapp (mM) ATP, - DTT [1]: 1.9 mM; apparent Kmapp (RdRp substrates) [2]: 102.7 µM
O=C(O)c1ccccc1Nc1ccc(CCc2ccc(Cl)c(Cl)c2)cc1 [PD-118057]	7.76%	81.81%	11.19%	–	–	–	IC50 ([2]; read-out: RdRp IC50): > 20 µM
C=CCn1c(CSc2ccccc2[N+](=O)[O-])n[nH]c1=S [SSYA10-001]	–	–	–	–	–	–	inhibition of helicase unwinding activity in presence of DTT [1]: effectively eliminated the inhibition; inhibition of helicase NTPase activity, absence of DTT [3]: inhibits NTPase activity only in the absence of DTT
CC(C)c1ccccc1Cc1cc(C(=O)Nc2ccc(S(=O)(=O)c3ccccc3C(C)(C)C)cc2)c(O)c(O)c1O [TW-37]	3.76%	89.4%	3.9%	–	–	–	IC50 ([2]; read-out: RdRp IC50): 13.7 µM
OC[C@H]1O[C@H]([S-])[C@H](O)[C@@H](O)[C@@H]1O.[Au+] [aurothioglucose]	100.73%	4.77%	13.9%	–	–	–	DTT nsp13 inhibition [%] 20 µM (DTT HC Helicase inhibition [%]) [1]: 98.65%; IC50 ([1]; read-out: DTT Helicase IC50): 10.6 µM; IC50 ([1]; read-out: Helicase IC50): 1.95 µM; ATPase inhibition [%] 20 µM (HC Helicase ATPase inhibition [%]) [3]: 106.07%
CC1(C)C(/C=C/C=C/C=C/C=C2\N(CCCCS(=O)(=O)O)c3ccc4ccccc4c3C2(C)C)=[N+](CCCCS(=O)(=O)[O-])c2ccc3ccccc3c21 [cardiogreen]	–	4.44%	26.52%	–	–	–	DTT Helicase unwinding inhibition [%] 2.5 µM triplicates [1]: 65% and 65.01%; DTT nsp13 inhibition [%] 20 µM (DTT HC Helicase inhibition [%]) [1]: 94.06%; Helicase unwinding inhibition 2.5 µM triplicates [1]: 66.59; IC50 ([1]; read-out: DTT Helicase IC50): 3.85 µM; IC50 ([1]; read-out: Helicase IC50): 3.57 µM; ATPase inhibition [%] 20 µM (HC Helicase ATPase inhibition [%]) [3]: 97.11%; DTT Helicase ATPase activity PLUS DNA substrate 2 µM [3]: 51.49; DTT Helicase ATPase activity [%] 2 µM [3]: 60.43%; Helicase ATPase activity PLUS DNA substrate 2 µM [3]: 32.88; Helicase ATPase activity [%] 2 µM [3]: 45.65%; gain of ATPase activity reduction in the presence of dsDNA substrate [3]: 10–15%; remaining NTPase activity [3]: 60.4%
Cc1cc(N)c2ccccc2[n+]1CCCCCCCCCC[n+]1c(C)cc(N)c2ccccc21 [dequalinium chloride]	–	–	−4.04%	25.6%	4.07 µM	94.6%	–
O=C(Nc1ccc2c(O)cc(S(=O)(=O)[O-])cc2c1)Nc1ccc2c(O)cc(S(=O)(=O)[O-])cc2c1.[Na+].[Na+] [disodium 7,7′-(carbonyldiimino) bis(4-hydroxy-2-naphthalenesulfonate)]	84.75%	90.5%	–	–	–	–	DTT Helicase unwinding inhibition [%] 2.5 µM triplicates [1]: 6.27%; DTT nsp13 inhibition [%] 20 µM (DTT HC Helicase inhibition [%]) [1]: 65.72%; IC50 ([1]; read-out: DTT Helicase IC50): > 20 µM; IC50 ([2]; read-out: RdRp IC50): > 20 µM; DTT Helicase ATPase activity PLUS DNA substrate 2 µM [3]: 103.05; DTT Helicase ATPase activity [%] 2 µM [3]: 103.17%
CC1=NN(c2ccc(C)c(C)c2)C(=O)/C1=N\Nc1cccc(-c2cccc(C(=O)O)c2)c1O [eltrombopag olamine]	–	–	21.05%	3.09%	4.29 µM	95.2%	RdRp Tm °C 20 µM (RdRp complex): 41.5 °C; RdRp Tm °C 100 µM (RdRp complex): 43.6 °C
CCOc1ccc2nc3cc(N)ccc3c(N)c2c1 [ethacridine lactate]	–	–	32.09%	35.5%	9.96 µM	80.3%	–
O=C(c1cc(O)c(O)c(O)c1)c1ccc(O)c(O)c1O [exifone]	–	–	8.87%	100%	–	36.6%	DTT Helicase unwinding inhibition [%] 2.5 µM triplicates [1]: 99.91%; inhibition at 2.5 µM [1, 4]: 99.9%; inhibition at 2.5 µM [1, 6]: 49.9%; Helicase Tm °C 20 µM (SARS-CoV-2 helicase): 38.3 °C; Helicase Tm °C 100 µM (SARS-CoV-2 helicase): 37.8 °C; effect on helicase Tm (SARS-CoV-2 helicase): decrease in Tm; DTT Helicase ATPase activity PLUS DNA substrate 2 µM [3]: 2.64; DTT Helicase ATPase activity [%] 2 µM [3]: 14.53%; Helicase ATPase activity PLUS DNA substrate 2 µM [3]: 4.96; Helicase ATPase activity [%] 2 µM [3]: 11.33%; gain of ATPase activity reduction in the presence of dsDNA substrate [3]: 10–15%; remaining NTPase activity [3]: 14.5%; inhibition at 20 µM [3]: 104%
OCCOCCN1CCN(C(c2ccccc2)c2ccc(Cl)cc2)CC1 (centres unmarked) [hydroxyzine pamoate]	–	–	1.28%	4.28%	16.5 µM	76.8%	–
C=C1c2cccc(O)c2C(=O)C2=C(O)[C@]3(O)C(=O)C(C(N)=O)=C(O)[C@@H](N(C)C)[C@@H]3[C@@H](O)[C@H]12 [methacycline hydrochloride]	–	–	25.54%	25.2%	6.43 µM	120%	–
O=c1c(O)c(-c2ccc(O)cc2O)oc2cc(O)cc(O)c12 [morin hydrate (aurantica), morin hydrate]	39.33%	95.67%	20.36%	–	–	–	IC50 ([2]; read-out: RdRp IC50): 5.96 µM
O=C(N/N=C/c1ccc([N+](=O)[O-])o1)c1cc([N+](=O)[O-])cc([N+](=O)[O-])c1O [nifursol]	–	–	8.54%	5.5%	11.5 µM	100%	–
O=C(O)c1cc(/N=N/c2ccc(O)c(C(=O)O)c2)ccc1O [olsalazine sodium]	–	–	12.75%	–	14.4 µM	84.7%	–
Cc1c(Cl)c(C)[n+]([O-])c(Cl)c1-c1noc(-c2cc(O)c(O)c([N+](=O)[O-])c2)n1 [opicapone]	–	–	6.86%	–	–	17.9%	DTT nsp13 inhibition [%] 20 µM (DTT HC Helicase inhibition [%]) [1]: 51.40%; IC50 ([1]; DTT Helicase IC50 [µM]): 25.5 µM; IC50 ([1]; Helicase IC50 [µM]): 1.1 µM; inhibition at 20 µM ([1]; read-out: DTT nsp13 inhibition [%] 20 µM (DTT HC Helicase inhibition [%])): > 50%; inhibition at 20 µM [3]: 96.9%
CN(C)[C@@H]1C(O)=C(C(N)=O)C(=O)[C@@]2(O)C(O)=C3C(=O)c4c(O)cccc4[C@@](C)(O)[C@H]3[C@H](O)[C@@H]12 [oxytetracycline]	–	–	19.99%	16.4%	16.1 µM	100%	–
CO[C@H](C(=O)[C@@H](O)[C@@H](C)O)[C@@H]1Cc2cc3cc(O[C@H]4C[C@@H](O[C@H]5C[C@@H](O)[C@H](O)[C@@H](C)O5)[C@H](O)[C@@H](C)O4)c(C)c(O)c3c(O)c2C(=O)[C@H]1O[C@H]1C[C@@H](O[C@H]2C[C@@H](O[C@H]3C[C@](C)(O)[C@H](O)[C@@H](C)O3)[C@@H](O)[C@@H](C)O2)[C@H](O)[C@@H](C)O1 [plicamycin (mithramycin), plicamycin]	–	–	−3.94%	95.8%	–	6.39%	DTT Helicase unwinding inhibition [%] 2.5 µM triplicates [1]: 71.99%; DTT nsp13 inhibition [%] 20 µM (DTT HC Helicase inhibition [%]) [1]: 98.09%; mode of helicase inhibition towards dsDNA substrate [1]: competitive mode of inhibition towards the dsDNA substrate; IC50 ([1]; DTT Helicase IC50 [µM]): 1.35 µM; IC50 ([1]; Helicase IC50 [µM]): 3.57 µM; inhibition at 2.5 µM [1, 4]: 72%; inhibition at 2.5 µM [1, 6]: 39%; Helicase Tm °C 20 µM (SARS-CoV-2 helicase): 38.3 °C; Helicase Tm °C 100 µM (SARS-CoV-2 helicase): 38.9 °C; effect on helicase Tm (SARS-CoV-2 helicase): did not result in a Tm change; DTT Helicase ATPase activity PLUS DNA substrate 2 µM [3]: 133.03; DTT Helicase ATPase activity [%] 2 µM [3]: 114.66%; Helicase ATPase activity PLUS DNA substrate 2 µM [3]: 159.86; Helicase ATPase activity [%] 2 µM [3]: 125.71%; remaining NTPase activity [3]: 114.6%; inhibition at 20 µM [3]: 19.8%
COc1cc(NC(C)CCCN)c2ncccc2c1 (centres unmarked) [primaquine phosphate]	–	–	1.58%	7.17%	6.56 µM	102%	–
O=C(O)c1c(Cl)c(Cl)c(Cl)c(Cl)c1-c1c2cc(I)c(=O)c(I)c-2oc2c(I)c(O)c(I)cc12 [rose bengal sodium salt]	–	–	30.91%	21.5%	> 20 µM	98%	–
O=C1OC2(c3cc(I)c(O)c(I)c3Oc3c2cc(I)c(O)c3I)c2c(Cl)c(Cl)c(Cl)c(Cl)c21 [rose-bengal-lactone]	−2.61%	99.44%	35.69%	–	–	–	–
FPA-124	–	7.70%	−3.30%	–	–	–	DTT nsp13 inhibition [%] 20 µM (DTT HC Helicase inhibition [%]) [1]: 64.76%
tyrphostin-AG-835	7.56%	84.15%	11.5%	–	–	–	IC50 ([2]; read-out: RdRp IC50): 9.64 µM
